# Reference: patent publication US4487708A (priority 1981, dated 1984)
# Assays:
# [1] = oxygen scavenging efficacy at elevated temperature and pressure (hot water flow system)
# Description: In a first series of tests, the oxygen scavenging efficacies of various materials were evaluated under conditions of elevated temperature and pressure. The test apparatus used was essentially a stainless steel hot water flow system equipped with appropriate monitoring instrumentation. Demineralized feedwater, adjusted to the appropriate pH and initial dissolved oxygen level (controlled by nitrogen sparging), was pumped from a reservoir at ambient temperature into a once-through heater. Temperature was monitored continuously by means of thermocouples at several locations along the length of the flow tubing. A solution containing the oxygen scavenger test material was loaded into a pump driven syringe and fed continuously to the heated flow stream through a port containing a stainless steel ribbon mixing baffle. The feedwater containing dissolved oxygen and the test material then traversed the flow tubing via a by-pass comprising an additional length of coiled tubing. Contact (or reaction) time of the test material and dissolved oxygen was governed by the choice of coil length. The tendency of the temperature to drop during residence in the coiled tubing was offset by the use of thermostatted heating tapes which maintained the temperature in this tubing at 78±3° C. Upon exiting the coiled tubing, the stream flowed through a sample cooler to render the temperature of the liquid compatible with the operating range of a membrane-type dissolved oxygen probe. The cooled liquid was analyzed for dissolved oxygen via a D.O. flow cell, and pH was potentiometrically monitored in the flow tube immediately downstream of the D.O. probe. Outputs of the temperature, pH and dissolved oxygen probes during operation were monitored via strip chart recorders. The final destination of the reaction mixture was a reservoir which could be drained for analysis of reaction products, if desired.
# Temperature in the system could be maintained at 78±3+ C. under 4±1 psig. Residence time of the feedwater in the flow tube from chemical feed point to D.O. flow cell outlet was 4±0.2 minutes. Approximately 3.5 minutes of this total was spent in a 40' length of 0.402 inch i.d. coiled tubing. Entry into and residence in the sample cooler accounted for 0.5 minute of the total contact time.
# According to an article by J. W. Cohn and R. E. Powell, Jr., J. Amer.
# The test solutions were prepared by initially mixing 10 grams of test material and 90 grams of demineralized water in glass bottles and allowing the mixture to remain in a shaker for several hours. If complete dissolution for a given material was observed after shaking, the pH of the solution was measured. When the pH of the solution was below 10.0, 7N sodium hydroxide was added dropwise until this value was reached. The quantity of added sodium hydroxide was recorded and later used in corrections for the active concentration of the solution. When the pH value of a stock solution was above pH 10.0 without requiring the addition of caustic, the solution was not further modified.
# Results of these tests are reported in TABLE 1 below in terms of percent oxygen removed from the test stream. The precision of the initial and final dissolved oxygen values reported is approximately ±10%. […] The experimental uncertainties decrease with increasing values of percent dissolved oxygen removal.
# The specific experimental conditions were:
# Reaction Time=240±10 seconds
# [2] = for mu-amine required to effect dissolution: saturated solution, 10.0 g hydroquinone (6.3 + 3.7 g) in 89.5 g water
# Description: Volumes of mu-amines required to effect dissolution were recorded and converted to weights via density.
# [3] = room temperature oxygen scavenging test (flask with dissolved oxygen probe); conditions: for % O2 Removed At 60 Seconds: Table 11, hydroquinone 93 ppm; for % O2 Removed At 60 Seconds / % O2 Removed: 23-25 °C; for % O2 Removed: 60 seconds; for % O2 Removed, 1 Minute: hydroquinone: pH 8.6, 22.5 °C, ratio 0.94, initial O2 7.7 ppm
# Description: The test apparatus basically consisted of a 1 liter, three-necked flask fitted with a dissolved oxygen probe and a pH electrode. The intent of this apparatus was to show reaction kinetics differences rather than precise measurements (within seconds) of reaction times.
# The flask was filled with deionized water which had been stripped of some dissolved oxygen by bubbling nitrogen through a diffuser stone. The pH was adjusted to the desired level with sodium hydroxide. The flask was sealed with a rubber septum, the dissolved oxygen probe and the pH electrode. A magnetic stirrer bar was left in the flask for mixing. The mixer was turned on, and dissolved oxygen and temperature readings were recorded until the dissolved oxygen reached a constant value. Next, the appropriate quantity of additive was injected through the septum using a hypodermic syringe. The initial mole ratio of treatment to dissolved oxygen was determined by weighing feed chemical and measuring the oxygen concentration. […] Dissolved oxygen and temperature readings were then taken at appropriate time intervals.
# Using the same apparatus and procedure as described in Example 4 above, oxygen scavenging experiments were performed by injecting 1 ml of stock solution into a glass vessel containing 1070 ml of air-saturated, demineralized water adjusted to the appropriate pH with 7N sodium hydroxide. […] The final pH values indicated are for the test water.
# The stock solution concentrations are presented in terms of weight % aqueous. The stock solutions were each 100 grams total. […] The tests were conducted at ambient temperature (23°-25° C.).
# The tests were conducted at ambient temperature (23°-25° C.).
# [4] = dissolution and storage stability of hydroquinone/methoxypropylamine solutions; format: physicochemical
# Description: The following 25 gram solutions were prepared and sealed in glass bottles (components listed in order of addition):
# Fifty (50) grams of each of the following solutions were prepared in glass bottles, sealed and placed on a shaker for two hours: […]
# [5] = thermal stability of amines / dioxo aromatic compounds (no method given); format: physicochemical; conditions: of the amines tested
# [6] = compatibility of neutralizing amines with hydroquinone in solution; format: physicochemical; conditions: combined with hydroquinone
# Description: To provide convenient single-drum treatments, it was decided to test-formulate various dioxo aromatic compounds with neutralizing amines.
# [7] = cited from earlier work
# [8] = cited from earlier work; remark: listed apart in the source
# [9] = oxygen removal from feedwater of a working boiler (Example 2)
# Description: In order to compare the performance of hydroquinone with that of hydrazine under field-type conditions, a series of experiments were conducted on the feedwater of a working boiler. The test materials were fed to the deaerator storage tank, and the resultant change, if any, in dissolved oxygen level was measured on a sample flowing from the feedwater line through a membrane-type dissolved oxygen probe.
# During the tests, a relatively wide range of experimental conditions was encountered among the test parameters, reflecting the difficulty of attempting to obtain precise data during experiments performed on a working boiler.
# In order to provide some point of reference for judging oxygen scavenging efficacies while taking into account the diverse conditions experienced on a daily basis, hydrazine control runs were performed, whenever possible, under feedwater and boiler conditions similar to those encountered during testing of other test materials. The hydrazine control runs are reported below in Table 3, also in terms of % oxygen removal.
# [10] = Table 10, mu-amine combined with hydroquinone, 6.7 ppm each, 78±1 °C, 3-5 psig, 240±10 seconds, final pH 9.7, initial O2 1.0-1.5 ppm
# [11] = stock mu-amine 1.5 / hydroquinone 10.0 wt. %, HQ:mu-amine 6.67:1
# [12] = stock mu-amine 90.0 / hydroquinone 10.0 wt. %, HQ:mu-amine 1:9
# [13] = stock mu-amine 99.0 / hydroquinone 1.0 wt. %, HQ:mu-amine 1:99
# [14] = Table 8, mu-amine combined with hydroquinone, 103 ppm each, final pH 9.3-10.5
# [15] = Table 1, 78±3 °C, 4±1 psig, contact 4±0.2 min, feedwater 58-100 ppm, pH 8.9-10.9, initial O2 1.8-2.3 ppm, hydrazine average of 9 runs, values below 20% may be artifacts
# [16] = 6.3 g hydroquinone in 89.5 g demineralized water
# [17] = Table 5, hydrazine: pH 9.2, 26.5 °C, ratio 10.5, initial O2 0.87 ppm
# [18] = Table 9, mu-amine combined with hydroquinone, about 30 ppm / 10 ppm, 78±1 °C, 3-5 psig, 240±10 seconds, final pH 10.3, initial O2 500-750 ppb
molecule,measurement,setting,value
COCCCN [Methoxypropylamine],% O2 Removed,[1]; [10],99%
same,MOPA required to dissolve hydroquinone,"[2]; 10.0 g hydroquinone, neat MOPA",12.5 grams
same,mu-amine required to effect dissolution,[2],1.7 grams
same,% O2 Removed At 60 Seconds,[3]; [11],96%
same,% O2 Removed At 60 Seconds,"[3]; stock mu-amine 2.0 / hydroquinone 10.0 wt. %, HQ:mu-amine 5:1",96%
same,% O2 Removed At 60 Seconds,"[3]; stock mu-amine 3.0 / hydroquinone 10.0 wt. %, HQ:mu-amine 3.33:1",96%
same,% O2 Removed At 60 Seconds,"[3]; stock mu-amine 15.0 / hydroquinone 15.0 wt. %, 1:1",95%
same,% O2 Removed At 60 Seconds,"[3]; stock mu-amine 20.0 / hydroquinone 20.0 wt. %, 1:1",98%
same,% O2 Removed At 60 Seconds,"[3]; stock mu-amine 30.0 / hydroquinone 30.0 wt. %, 1:1",98%
same,% O2 Removed At 60 Seconds,"[3]; stock mu-amine 40.0 / hydroquinone 40.0 wt. %, 1:1",94%
same,% O2 Removed At 60 Seconds,[3]; [12],94%
same,% O2 Removed At 60 Seconds,[3]; [13],96%
same,% O2 Removed,"[3]; Table 12, methoxypropylamine 1.0 / hydroquinone 1.0 wt. %, final pH 8.5",10%
same,% O2 Removed,"[3]; Table 12, methoxypropylamine 1.0 / hydroquinone 6.0 wt. %, final pH 8.4",78%
same,% O2 Removed,"[3]; Table 12, methoxypropylamine 3.0 / hydroquinone 3.0 wt. %, final pH 8.9",74%
same,% O2 Removed,"[3]; Table 12, methoxypropylamine 6.0 / hydroquinone 1.0 wt. %, final pH 9.0",17%
same,% O2 Removed,"[3]; Table 12, methoxypropylamine 6.0 / hydroquinone 6.0 wt. %, final pH 9.0",93%
same,lowest practical MOPA concentration in the mixture,[4]; 10% hydroquinone aqueous solution,2%
same,thermal stability,[5],most thermally stable of the amines tested
CC(O)CNCC(C)O (stereo not drawn) [Diisopropanolamine],% O2 Removed,[3]; [14],86%
"Oc1cccc(O)c1 [resorcinol, reference compound]",% O2 Removed,[1]; [15],0%
CC(O)CN (stereo not drawn) [Monoisopropanolamine],% O2 Removed,[1]; [10],98%
CCC(C)N (stereo not drawn) [sec-Butylamine],compatibility with hydroquinone in solution,[6],compatible with hydroquinone in solution
same,% O2 Removed,[3]; [14],74%
NCCO [Monoethanolamine],% O2 Removed,[3]; [14],75%
Oc1ccc(O)cc1 [hydroquinone],% O2 Removed,[1]; [15],97%
same,"dissolution time, solution #1",[2]; [16],23 min
same,"dissolution time, solution #2",[2]; [16],19 min
same,"dissolution time, solution #3",[2]; [16],21 min
same,"% O2 Removed, 1 Minute",[3]; [17],29%
same,% O2 Removed,"[3]; Table 12, mu-amine 0 / hydroquinone 1.0 wt. %, final pH 8.1",9%
same,% O2 Removed,"[3]; Table 12, mu-amine 0 / hydroquinone 3.0 wt. %, final pH 8.0",17%
same,% O2 Removed,"[3]; Table 12, mu-amine 0 / hydroquinone 6.0 wt. %, final pH 7.9",27%
same,active hydroquinone concentration of stable aqueous solution,"[4]; 1 to 1 with methoxypropylamine (40%), sealed storage for 12 days",up to 40%
same,aqueous solubility (accepted literature value),[7]; 25 °C,~7%
same,solubility in water,[7]; hydroquinone alone,about 7%
NCCN [Ethylenediamine],% O2 Removed,[1]; [18],99%
same,% O2 Removed,[3]; [14],85%
C1COCCN1 [Morpholine],compatibility with hydroquinone in solution,[6],precipitated out of solution
"Nc1ccc(N)cc1 [p-phenylenediamine, reference compound]",% O2 Removed,[1]; [15],35%
NCCNCCNCCN [Triethylenetetramine],% O2 Removed,[3]; [14],89%
"Nc1ccccc1N [o-phenylenediamine, reference compound]",% O2 Removed,[1]; [15],10%
Dimethyl(iso)propanolamine,% O2 Removed,[1]; [18],98%
same,% O2 Removed,[3]; [14],73%
CC(C)(C)N [tert-Butylamine],compatibility with hydroquinone in solution,[6],insoluble mass
CN(C)CCCN [Dimethylaminopropylamine],mu-amine required to effect dissolution,[2],1.7 grams
same,% O2 Removed,[3]; [14],76%
same,% O2 Removed At 60 Seconds,[3]; [11],94%
same,% O2 Removed At 60 Seconds,"[3]; stock mu-amine 30.0 / hydroquinone 10.0 wt. %, HQ:mu-amine 1:3",99%
same,% O2 Removed At 60 Seconds,[3]; [12],98%
same,% O2 Removed At 60 Seconds,[3]; [13],50%
NN [hydrazine],pH of maximum oxygen scavenging efficacy,[8]; Cohn and Powell 1954,10.0-10.5 pH
same,decomposition temperature,[8]; forms ammonia,Above 400 ° F.
same,rate of reaction with oxygen,"[8]; low temperatures, such as room temperature",very slow at low temperatures
same,% O2 Removed,"[9]; Table 3, control run 1, 1.6 ppm actives, pH 8.8, steam load 11, initial O2 13.0 ppb",69%
same,% O2 Removed,"[9]; Table 3, control run 2, 1.1 ppm actives, pH 9.4, steam load 15, initial O2 4.0 ppb",50%
same,% O2 Removed,"[9]; Table 3, control run 3, 1.2 ppm actives, pH 8.6, steam load 15, initial O2 6.0 ppb",60%
same,% O2 Removed,"[9]; Table 3, control run 4, 1.0 ppm actives, pH 8.8, steam load 15, initial O2 5.8 ppb",55%
same,% O2 Removed,"[9]; Table 3, control run 5, 0.8 ppm actives, pH 9.4, steam load 11, initial O2 3.5 ppb",31%
same,% O2 Removed,"[9]; Table 3, control run 6, 1.6 ppm actives, pH 9.6, steam load 14, initial O2 4.0 ppb",30%
same,"% O2 Removed, 5 Minutes",[3]; [17],2%
same,"% O2 Removed, 1 Minute",[3]; [17],1%
NC1CCCCC1 [Cyclohexylamine],compatibility with hydroquinone in solution,[6],precipitated out of solution
